Assay results: US10897891B2, “Compositions and methods for prolonged cell storage” (Board of Regents, The University of Texas System, priority 2015, dated 2021)

Test system: platelets
Assay: Microscopic platelet degranulation at 5° C. with cryoprotective agents
Assay type: cell-based, human
Set-up: key to effect on microscopic degranulation, 0.75% / effect on microscopic degranulation, 0.38% / effect on microscopic degranulation, 3% / effect on microscopic degranulation, 1.5% / effect of cryoprotective on platelet degranulation, 3% / effect of cryoprotective on platelet degranulation, 1.5% / effect of cryoprotective on platelet degranulation, 0.75% / effect of cryoprotective on platelet degranulation, 0.38%: none: None = no effect detected ~90% complete degranulation; fair: Fair = 25 to 50% of platelets are non-degranulated; good: Good = >80 are non-degranulated
Conditions: for effect of cryoprotective on platelet degranulation, 3% / effect on microscopic degranulation, 3%: 3% final in ACD-Platelet mixture; for platelet colour / granule preservation: 5° C.; for effect of cryoprotective on platelet degranulation, 0.38% / effect on microscopic degranulation, 0.38%: 0.38% final in ACD-Platelet mixture; for effect of cryoprotective on platelet degranulation, 0.75% / effect on microscopic degranulation, 0.75%: 0.75% final in ACD-Platelet mixture; for effect of cryoprotective on platelet degranulation, 1.5% / effect on microscopic degranulation, 1.5%: 1.5% final in ACD-Platelet mixture
Method: Platelet aggregation using epinephrine. Ten ml of 24 hr old platelet residual was derived from one platelet unit and split into two 5 ml aliquots in 50 ml tubes. One sample received 10% phosphate buffered saline (PBS) and one 10% PBS containing PEG400 such that the final PEG concentration was 2%. These samples were placed on a flat-bed rotator with a 1 inch stroke, at 70 cycles per min, at 5° C. for 7 days. 100 ul of these platelet suspensions were added to wells of a 96 well U bottom plate. Epinephrine 0.1 mg/ml (Pharmaceutical NDC 0409-4921-34-44-048-DK) was diluted with PBS and 100 ul was added to test wells to give a finial concentration of 10 mcg/ml. The plate was rotated overnight to allow aggregation. The extent of aggregation was read using an ELISA plate reader (Molecular Devises, Vmax) at 690 nm wavelength. Platelets, with and without PEG, were also aggregated by the addition of 10% H2O2. Hydrogen peroxide is not an agonist for the platelet receptor; however exposure to hydrogen peroxide mimics the platelet storage lesion though membrane ageing. In this study, the inventors tested 2 day old residual platelets form one donor unit by splitting the material in to a 24 well cluster plate. Control platelets had 10% PBS added and were compared to test compositions with the addition of 10% volume PBS plus 2% PEG-400. 10% v/v (Hydrogen peroxide 3%) was then added to all wells simultaneously using a multichannel pipette. Wells were photographed following 1 hr room temperature incubation (see FIGS. 2A-B and FIG. 3). Table 3 presents additional cryoprotective agents scored for the effect on microscopic degranulation (20× high contrast lighting as above).
The following methods were used: “Fresh” in-date 2 day old blood bank O pos random donor platelets were recovered from segments and held in a 50 cc tub with rotation 22° C., 70 cycles/min 1 inch stroke) for 30 min. Glycerol (Fisher tissue grade product) was obtained from virology diluted to 50% in sterile saline and filter sterilized. 12 g glycerol were added to 12 ml sterile saline (BioMeriux—vitek saline) and mixed. This mixture was filter sterilized using a 0.45 um filter (CELLULOSE ACETATE). Dilutions were made of the above saline to a concentration 50%, 25%, 12%, 6%, […]. 200 ul of platelets were withdrawn slowly (8 sec) and add slowly to 7 sterile 2 ml microcentrifuge tubes. 200 ul of 50%, 25%, 12% 6%, and 3% glycerol/saline and two controls using 200 ul saline, were then added to the platelets with slow mixing. Thus the final glycerol concentrations=25, 12, 6, 3, and 1.5. These aliquots were allowed to rotate at room temp as above for 5 min and then placed on a rotator at 70 cycles/min with a 1 inch stroke at 5° C. (temp previously equilibrated and documented at 5° C.)
At day 3, dark dense platelets were observed, indicating degranulation in the control groups (in both control groups A & B). A variation in platelet size was observed: small and dense indicating degranulation, vs. normal morphology pale plump platelets without the dense small degranulated appearance. Degranulation in response to cold storage is associated with the first step of the platelet activation GP-1 signal resulting in α-granule degranulation and massive extracellular release of vWF. (Suhasini el al., 2010). Table 4 presents a summary of additional cryoprotective agents scored for the effect on microscopic degranulation (20× high contrast lighting as above).

[1] = 6% final in ACD-Platelet mixture, 10 days at 5° C.

Row | Compound | 5° C. induced degranulation (3% and 6% glycerol, at 3, 6, and 10 days) | effect of cryoprotective on platelet degranulation, 3% (10 days at 5° C.) | effect on microscopic degranulation, 3% (10 days at 5° C.) | platelet colour / granule preservation (3% glycerol or 6% glycerol, day 10) | platelet colour / granule preservation (3% glycerol, day 3) | platelet colour / granule preservation (3% glycerol, day 6) | effect of cryoprotective on platelet degranulation, 6% [1] | effect on microscopic degranulation, 6% [1] | effect of cryoprotective on platelet degranulation, 0.38% (6 days at 5° C.) | effect on microscopic degranulation, 0.38% (6 days at 5° C.) | effect of cryoprotective on platelet degranulation, 0.75% (6 days at 5° C.) | effect on microscopic degranulation, 0.75% (6 days at 5° C.) | effect of cryoprotective on platelet degranulation, 1.5% (6 days at 5° C.) | effect on microscopic degranulation, 1.5% (6 days at 5° C.) | effect of cryoprotective on platelet degranulation, 3% (6 days at 5° C.) | effect on microscopic degranulation, 3% (6 days at 5° C.)
1 | OCC(O)CO [Glycerol] | prevented 5 °C induced degranulation | fair (Fair = 25 to 50% of platelets are non-degranulated) | fair (Fair = 25 to 50% of platelets are non-degranulated) | light color of platelets was observed, indicating granule preservation | light color of platelets was observed, indicating granule preservation | light color of platelets was observed, indicating granule preservation | good (Good = >80 are non-degranulated) | good (Good = >80 are non-degranulated) |  |  |  |  |  |  |  | 
2 | Methoxy PEG |  |  |  |  |  |  |  |  | none | none | none | none | good (Good = >80 are non-degranulated) | good (Good = >80 are non-degranulated) | good (Good = >80 are non-degranulated) | good (Good = >80 are non-degranulated)
3 | glycerol propoxylate |  |  |  |  |  |  |  |  | none | none | fair (Fair = 25 to 50% of platelets are non-degranulated) | fair (Fair = 25 to 50% of platelets are non-degranulated) | fair (Fair = 25 to 50% of platelets are non-degranulated) | fair (Fair = 25 to 50% of platelets are non-degranulated) | none | none
4 | pentaerythritol ethoxylate |  |  |  |  |  |  |  |  | none | none | none | none | none | none | none | none
5 | pentaerythritol propoxylate |  |  |  |  |  |  |  |  | fair (Fair = 25 to 50% of platelets are non-degranulated) | fair (Fair = 25 to 50% of platelets are non-degranulated) | none | none | none | none | none | none
6 | trimethylolpropane ethoxylate [Trimethylopropane ethoxylate] |  |  |  |  |  |  |  |  | none | none | none | none | none | none | none | none
